From patent publication US11707557B2, “Compositions and devices incorporating water-insoluble therapeutic agents and methods of the use thereof” (COOK MEDICAL TECHNOLOGIES LLC, priority 2014, dated 2023)
Converted amounts (≈) assume the structure as drawn.

Legend:
pig skin = tested on: pig skin
Experimental: Various gallate-containing drug formulations were prepared and applied to ex vivo pig skin samples. Fresh pig skin was obtained from a local butcher, processed within three hours and then frozen. For experiments, the skin was slowly thawed, excess fat removed from the base, and cut into 1×2 cm squares. These squares were mounted and clamped on Franz diffusion cells, which kept the tissue moist and isolated and exposed a 6 mm diameter of the upper skin surface for the application of a drug loaded formulation. Skin samples were then frozen and later cryosectioned in 50 μm slices. The drug in the slices was extracted and measured by HPLC or radioactive doping methods. A drug depth profile was then established for each drug.
1. Formulations containing a drug and a gallate. The drugs were dissolved in ethanol at various concentrations along with either EGCG or TA (500 mg/mL). Each solution was pipetted into 6×5 mm diameter aluminum cups (approximately 3 mm in height) by filling and allowing the ethanol to evaporate at 50° C. until all the solution was used up (80 mg per cup).
2. Formulations containing a drug, propylene glycol (“PG”) and a gallate. 300 mg of propylene glycol was mixed with 200 mg of EGCG or TA until dissolved. Various amounts of drug were added to this mixture and dissolved. 80 mg of the resulting viscous solution was weighed into 6×5 mm aluminum cups.
3. Control Formulations. Control formulations were prepared using Glaxal base and Plogel. Glaxal base is a cream used by compounding pharmacists to manufacture topical formulations of drugs. Plogel is an alternative used for dermal formulations. […] Drug was added to a known weight of Glaxal or Plogel and levigated to produce a standard drug dispersion. These formulations were prepared the evening before the experiment. For some drugs, radioactive drug (where available) was also added as a doping additive to facilitate quantitation in tissues.
Eutectics: In some cases, gallate containing compounds and drugs were formulated in eutectic mixtures. These included a 60:40 (% w/w) mixture of menthol with ibuprofen. These agents acted as a carrier for retinoic acid, which was then dissolved in this liquid. The 3-drug eutectic/solution was then blended into the CMC/poloxamer emulsion containing EGCG (2.5%). […] The emulsion was stabilized with poloxamer.
Example 29. Pig skin studies. Aluminum cups containing drug formulations were inverted on top of the pig skin in the Franz diffusion cell so that the formulation contents were in contact with the skin. […]
Analysis. […] The amount of drug in each group of skin sections was then determined using HPLC methods, or by radioactivity counting on a liquid scintillation counter. The amount of drug in each group of skin sections was expressed as μg/g or mg/g of tissue.

[1] = 24 h
Experimental: (§1) PBS (EGCG) or water (tannic acid) was added and the final solution filtered through a 0.22 micron filter to remove any particulates. The solutions were analyzed for drug concentration using HPLC.
(§2) PBS (EGCG) or water (tannic acid) was added and the final solution filtered through a 0.22 micron filter to remove particulates. The solution was then analyzed for drug concentration using absorbance spectroscopy at 450 nm.
(§3) PBS (EGCG) or water (tannic acid) was added and the final solution was filtered through a 0.22 micron filter to remove any particulates and the solution was analyzed for drug concentration using HPLC.
(§4) PBS (EGCG) or water (tannic acid) was added and the final solution filtered through a 0.22 micron filter to remove any particulates and the solution was analyzed for drug concentration using HPLC.
(§5) PBS (EGCG) or water (Tannic acid) was added and the final solution was filtered through a 0.22 um filter to remove any particulates and the solution was analyzed for drug concentration using HPLC.
(§6) Method: drug and EGCG or tannic acid were dried down from acetonitrile (or methanol for tannic acid) solutions at various drug to EGCG or tannic acid ratios. PBS (EGCG) or water (Tannic acid pH adjusted to 7) was added and the final solution was filtered through a 0.22 um filter to remove any particulates and the solution was analyzed for drug concentration using HPLC methods.

Caco2 cells = test: Transport of curcumin through Caco2 cells (transwell); format: in vitro ADME, human; settings: 3 hours
Source text: Caco2 cells are continuous cells of human epithelial colorectal adenocarcinoma cells. They contain drug efflux proteins and may be used in the same way that MDCK-MDR cells are, i.e. to measure drug accumulation in cells that have the ability to efflux drugs.
Caco2 cells (ATCC, VA, USA) are proliferating gut epithelial cells used throughout the pharmaceutical sciences as a model of oral drug availability. These cells may be grown in cell culture on membranes where they align with an apical external surface (equivalent to the gut lumen) and a basolateral lower surface that is equivalent to the cell side adjacent to the blood capillaries. When an EGCG curcumin solution was placed in the upper portion of a transwell containing these cells on a membrane for three hours, large amounts of curcumin either passed through or accumulated within the caco2 cells.
Caco2 cells were seeded onto 0.3 um transwell membranes and left to grow to confluence for 3 days. A conductivity electrode measured the Transcellular electrical resistance value over the next few days and when it had reached […] (tight junctions established) the experiment began. A solution of curcumin (250 microgram per ml) in EGCG (25 mg per ml) in Hanks buffer pH 7.4. was added to the top well for 3 hours. […] All solutions were then analyzed for curcumin content using uv-vis absorbance spectroscopy at 430 nm.

[2] = Drug concentrations obtained using EGCG at 50 mg per ml (microscopic check for particulates); format: physicochemical
Experimental: EGCG at 50 mg/ml and drug at approximately 250 micrograms per ml were dissolved in the listed solvent and dried down in a test tube under nitrogen. 1 ml of water was added, followed by vortexing. The solutions were examined for particulate matter under a microscope. If no particulates were present, the process was repeated with a higher drug amount. All the tested drugs remained in solution at the listed concentrations except for nystatin and hesperidin.

[3] = Drug release from injectable PG:gallate pastes (60:40) into PBS; format: physicochemical; settings: 60:40 PG:EGCG or PG:tannic acid, 2% w/w drug, PBS pH 7.4, 37° C.
Experimental: Methods: 60:40% w/w PG:EGCG or PG:tannic acid was used in these studies. 588 mg of propylene glycol was weighed into a 20 mL glass vials and 392 of EGCG or tannic acid was added followed by vortexing to distribute and dissolve the gallates. The vials were warmed to 60° C. and vortexed until all the contents were in solution. At this time 20 mg of drug was added (2% w/w) and vortexed until in solution. The following drugs were used: paclitaxel, docetaxel, retinoic acid, amphotericin B, and curcumin. 100 mg of each paste was weighed into the base of a 15 mL glass test tube and 10 mL of phosphate buffered saline was added at pH 7.4 and the tubes were incubated at 37° C. for certain times. All 10 mL of the PBS release media was removed and 1 mL analyzed by HPLC for drug content. 10 mL of fresh PBS was then added to all tubes

[4] = Drug in EGCG or tannic acid films (optical microscopy, DSC); format: physicochemical
Experimental: Thin films of drugs were cast in either EGCG or tannic acid from ethanol solutions. Drugs in either EGCG or tannic acid were dissolved in ethanol at a final total concentration of 20% w/v and spot pipetted in repeated 10 microliter volumes and allowed to dry between spotting. This allowed a thin film to accumulate and dry. Some solutions contained either glycerol or polyethylene glycol 300 at 10% or 20% w/w to EGCG or tannic acid. The films were allowed to dry and examined by optical microscopy for drug precipitation. Films were allow analyzed by differential scanning calorimetry (DSC) for identify drug crystals.

Experimental for physchem: as §1, §2, §3, §4, §5, §6

## COc1cc(/C=C/C(=O)CC(=O)/C=C/c2ccc(O)c(OC)c2)ccc1O [curcumin]
physchem; aqueous with cosolvent or surfactant or cyclodextrin, thermodynamic from solid, drug concentration solubilised at maximum EGCG concentration
  solubility: ~4700 µg/mL (≈ 12.8 mM)
physchem; aqueous with cosolvent or surfactant or cyclodextrin, thermodynamic from solid, drug concentration solubilised at maximum tannic acid concentration
  solubility: ~12000 µg/mL (≈ 32.6 mM)
physchem; water, free solubility in water
  solubility: < 1 µg/mL
Pig skin
  drug uptake by pig skin: essentially no drug uptake
[1]
  stability of EGCG solutions of the drug: stable for 24 hours
  stability of tannic acid solutions of the drug: stable for 24 hours
Caco2 cells; curcumin 250 microgram per ml in EGCG 25 mg per ml, versus diblock copolymer
  curcumin uptake and transport through the cells: much higher levels
Caco2 cells; diblock copolymer micellar solution, 250 micrograms/ml
  curcumin passing through and entering the cells: small amount
[2]
  Visual appearance: clear
[2]; 1 ml of water
  Drug Concentration: 250 microgram/ml
[2]; under a microscope
  Particulates present: no
[3]
  drug release from PG:gallate paste: relatively controlled release of the drug over 24 hours
[4]
  drug loading at which drug precipitated out of film: approximately 5 % w/w
